Key:
Conditions in all cases: 48 h
[1] = system: P12-Ichikawa; experiment: AUC of viability dose-response curve (% viability x log10 dose units); higher = less sensitive
Method in brief: (§1)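 Seeding of medium-adapted leukemia cells was at 500 or 1000 cells/well in 1536-well plates, followed by 48 h at 37°C with library compounds in DMSO at 11 threefold doses from 47 μM to 0.79 nM. CellTiter-Glo One luminescence was normalised per plate to DMSO and cell-free wells and fitted as a four-parameter log-logistic function of log10 dose. Area under the curve was integrated by trapezoidal rule, with curves exceeding full viability scaled and curves failing quality control removed.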

[2] = system: SEM cells; experiment: as above
Method in brief: as §1

[3] = system: NOMO1; experiment: as above
Method in brief: as §1

[4] = system: P12-Ichikawa; experiment: cell viability relative to DMSO control; higher = less cytotoxic
Method in brief: (§2)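 Library compounds in DMSO were pin-dosed in an 11-point threefold series (47 μM to 0.79 nM) onto leukemia cells in 1536-well plates (5 μl). Plates held 500 cells/well of NOMO1 or SEM or 1000 cells/well of P12-Ichikawa, each adapted for at least four passages in each medium. Luminescence was read with CellTiter-Glo One after 48 h at 37°C. Viability means the per-plate percentage relative to DMSO wells, using cell-free wells as background.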

[5] = system: SEM cells; experiment: as above
Method in brief: as §2

[6] = system: NOMO1; experiment: as above
Method in brief: as §2

[7] = RPMI 5 mM glucose + 10% dialyzed FBS
[8] = HPLM + 10% dialyzed FBS, 0.000781 µM
[9] = HPLM + 10% dialyzed FBS, 0.00234 µM
[10] = HPLM + 10% dialyzed FBS, 0.00702 µM
[11] = HPLM + 10% dialyzed FBS, 0.0211 µM
[12] = HPLM + 10% dialyzed FBS, 0.0632 µM
[13] = HPLM + 10% dialyzed FBS, 0.19 µM
[14] = HPLM + 10% dialyzed FBS, 0.569 µM
[15] = HPLM + 10% dialyzed FBS, 1.71 µM
[16] = HPLM + 10% dialyzed FBS, 5.12 µM
[17] = HPLM + 10% dialyzed FBS, 15.4 µM
[18] = HPLM + 10% dialyzed FBS, 46.1 µM
[19] = RPMI 5 mM glucose + 10% FBS, 0.000781 µM
[20] = RPMI 5 mM glucose + 10% FBS, 0.00234 µM
[21] = RPMI 5 mM glucose + 10% FBS, 0.00702 µM
[22] = RPMI 5 mM glucose + 10% FBS, 0.0211 µM
[23] = RPMI 5 mM glucose + 10% FBS, 0.0632 µM
[24] = RPMI 5 mM glucose + 10% FBS, 0.19 µM
[25] = RPMI 5 mM glucose + 10% FBS, 0.569 µM
[26] = RPMI 5 mM glucose + 10% FBS, 1.71 µM
[27] = RPMI 5 mM glucose + 10% FBS, 5.12 µM
[28] = RPMI 5 mM glucose + 10% FBS, 15.4 µM
[29] = RPMI 5 mM glucose + 10% FBS, 46.1 µM
[30] = RPMI 5 mM glucose + 10% dialyzed FBS, 0.000781 µM
[31] = RPMI 5 mM glucose + 10% dialyzed FBS, 0.00234 µM
[32] = RPMI 5 mM glucose + 10% dialyzed FBS, 0.00702 µM
[33] = RPMI 5 mM glucose + 10% dialyzed FBS, 0.0211 µM
[34] = RPMI 5 mM glucose + 10% dialyzed FBS, 0.0632 µM
[35] = RPMI 5 mM glucose + 10% dialyzed FBS, 0.19 µM
[36] = RPMI 5 mM glucose + 10% dialyzed FBS, 0.569 µM
[37] = RPMI 5 mM glucose + 10% dialyzed FBS, 1.71 µM
[38] = RPMI 5 mM glucose + 10% dialyzed FBS, 5.12 µM
[39] = RPMI 5 mM glucose + 10% dialyzed FBS, 15.4 µM
[40] = RPMI 5 mM glucose + 10% dialyzed FBS, 46.1 µM

## CCc1nc(N)nc(N)c1-c1ccc(Cl)cc1
[1]; HPLM + 10% dialyzed FBS
  AUC of viability dose-response curve: 352
[1]; RPMI 5 mM glucose + 10% FBS
  AUC of viability dose-response curve: 427
[1]; [7]
  AUC of viability dose-response curve: 389
[2]; HPLM + 10% dialyzed FBS
  AUC of viability dose-response curve: 381
[2]; RPMI 5 mM glucose + 10% FBS
  AUC of viability dose-response curve: 392
[2]; [7]
  AUC of viability dose-response curve: 399
[3]; HPLM + 10% dialyzed FBS
  AUC of viability dose-response curve: 381
[3]; RPMI 5 mM glucose + 10% FBS
  AUC of viability dose-response curve: 421
[3]; [7]
  AUC of viability dose-response curve: 427
[4]; [8]
  cell viability: 93.6%
[4]; [9]
  cell viability: 97.3%
[4]; [10]
  cell viability: 89.5%
[4]; [11]
  cell viability: 98.6%
[4]; [12]
  cell viability: 95.5%
[4]; [13]
  cell viability: 89.1%
[4]; [14]
  cell viability: 76.1%
[4]; [15]
  cell viability: 56.5%
[4]; [16]
  cell viability: 46.2%
[4]; [17]
  cell viability: 33.8%
[4]; [18]
  cell viability: 21.9%
[4]; [19]
  cell viability: 91.2%
[4]; [20]
  cell viability: 91.9%
[4]; [21]
  cell viability: 88.6%
[4]; [22]
  cell viability: 93.4%
[4]; [23]
  cell viability: 107%
[4]; [24]
  cell viability: 97%
[4]; [25]
  cell viability: 98.4%
[4]; [26]
  cell viability: 90%
[4]; [27]
  cell viability: 87.3%
[4]; [28]
  cell viability: 68.4%
[4]; [29]
  cell viability: 57.1%
[4]; [30]
  cell viability: 82.2%
[4]; [31]
  cell viability: 91.3%
[4]; [32]
  cell viability: 89%
[4]; [33]
  cell viability: 96.6%
[4]; [34]
  cell viability: 95.3%
[4]; [35]
  cell viability: 90.1%
[4]; [36]
  cell viability: 84.3%
[4]; [37]
  cell viability: 85.2%
[4]; [38]
  cell viability: 86.5%
[4]; [39]
  cell viability: 48.3%
[4]; [40]
  cell viability: 24.4%
[5]; [8]
  cell viability: 89%
[5]; [9]
  cell viability: 95%
[5]; [10]
  cell viability: 68.1%
[5]; [11]
  cell viability: 108%
[5]; [12]
  cell viability: 115%
[5]; [13]
  cell viability: 106%
[5]; [14]
  cell viability: 98.9%
[5]; [15]
  cell viability: 63%
[5]; [16]
  cell viability: 41%
[5]; [17]
  cell viability: 47.6%
[5]; [18]
  cell viability: 36.6%
[5]; [19]
  cell viability: 77%
[5]; [20]
  cell viability: 81.2%
[5]; [21]
  cell viability: 63.4%
[5]; [22]
  cell viability: 91.9%
[5]; [23]
  cell viability: 97.1%
[5]; [24]
  cell viability: 99.3%
[5]; [25]
  cell viability: 93%
[5]; [26]
  cell viability: 87.3%
[5]; [27]
  cell viability: 36%
[5]; [28]
  cell viability: 93.9%
[5]; [29]
  cell viability: 83.6%
[5]; [30]
  cell viability: 77.4%
[5]; [31]
  cell viability: 92.2%
[5]; [32]
  cell viability: 70.5%
[5]; [33]
  cell viability: 96.5%
[5]; [34]
  cell viability: 98.4%
[5]; [35]
  cell viability: 92.4%
[5]; [36]
  cell viability: 95.3%
[5]; [37]
  cell viability: 101%
[5]; [38]
  cell viability: 48.6%
[5]; [39]
  cell viability: 85.9%
[5]; [40]
  cell viability: 46.6%
[6]; [8]
  cell viability: 78.8%
[6]; [9]
  cell viability: 118%
[6]; [10]
  cell viability: 93.3%
[6]; [11]
  cell viability: 92.8%
[6]; [12]
  cell viability: 105%
[6]; [13]
  cell viability: 108%
[6]; [14]
  cell viability: 96.1%
[6]; [15]
  cell viability: 47.7%
[6]; [16]
  cell viability: 48%
[6]; [17]
  cell viability: 44.6%
[6]; [18]
  cell viability: 38.7%
[6]; [19]
  cell viability: 81.1%
[6]; [20]
  cell viability: 99.5%
[6]; [21]
  cell viability: 84.8%
[6]; [22]
  cell viability: 83.7%
[6]; [23]
  cell viability: 86.1%
[6]; [24]
  cell viability: 86.4%
[6]; [25]
  cell viability: 90.6%
[6]; [26]
  cell viability: 90.5%
[6]; [27]
  cell viability: 89.9%
[6]; [28]
  cell viability: 89.1%
[6]; [29]
  cell viability: 89.6%
[6]; [30]
  cell viability: 84%
[6]; [31]
  cell viability: 94.3%
[6]; [32]
  cell viability: 90.3%
[6]; [33]
  cell viability: 100%
[6]; [34]
  cell viability: 106%
[6]; [35]
  cell viability: 104%
[6]; [36]
  cell viability: 96.8%
[6]; [37]
  cell viability: 104%
[6]; [38]
  cell viability: 90.2%
[6]; [39]
  cell viability: 56.3%
[6]; [40]
  cell viability: 35.3%

## c1cc2c(cc1[C@H]1OC[C@H]3[C@@H]1CO[C@@H]3c1ccc3c(c1)OCO3)OCO2
[1]; HPLM + 10% dialyzed FBS
  AUC of viability dose-response curve: 470
[1]; RPMI 5 mM glucose + 10% FBS
  AUC of viability dose-response curve: 452
[1]; [7]
  AUC of viability dose-response curve: 473
[2]; HPLM + 10% dialyzed FBS
  AUC of viability dose-response curve: 468
[2]; RPMI 5 mM glucose + 10% FBS
  AUC of viability dose-response curve: 454
[2]; [7]
  AUC of viability dose-response curve: 455
[3]; HPLM + 10% dialyzed FBS
  AUC of viability dose-response curve: 467
[3]; RPMI 5 mM glucose + 10% FBS
  AUC of viability dose-response curve: 462
[3]; [7]
  AUC of viability dose-response curve: 456
[4]; [8]
  cell viability: 122%
[4]; [9]
  cell viability: 120%
[4]; [10]
  cell viability: 118%
[4]; [11]
  cell viability: 124%
[4]; [12]
  cell viability: 122%
[4]; [13]
  cell viability: 129%
[4]; [14]
  cell viability: 133%
[4]; [15]
  cell viability: 122%
[4]; [16]
  cell viability: 119%
[4]; [17]
  cell viability: 128%
[4]; [18]
  cell viability: 122%
[5]; [8]
  cell viability: 113%
[5]; [9]
  cell viability: 105%
[5]; [10]
  cell viability: 119%
[5]; [11]
  cell viability: 123%
[5]; [12]
  cell viability: 126%
[5]; [13]
  cell viability: 119%
[5]; [14]
  cell viability: 126%
[5]; [15]
  cell viability: 110%
[5]; [16]
  cell viability: 119%
[5]; [17]
  cell viability: 108%
[5]; [18]
  cell viability: 92.4%
[5]; [19]
  cell viability: 124%
[5]; [20]
  cell viability: 102%
[5]; [21]
  cell viability: 117%
[5]; [22]
  cell viability: 129%
[5]; [23]
  cell viability: 131%
[5]; [24]
  cell viability: 135%
[5]; [25]
  cell viability: 117%
[5]; [26]
  cell viability: 113%
[5]; [27]
  cell viability: 107%
[5]; [28]
  cell viability: 100%
[5]; [29]
  cell viability: 103%
[5]; [30]
  cell viability: 108%
[5]; [31]
  cell viability: 115%
[5]; [32]
  cell viability: 144%
[5]; [33]
  cell viability: 130%
[5]; [34]
  cell viability: 113%
[5]; [35]
  cell viability: 140%
[5]; [36]
  cell viability: 130%
[5]; [37]
  cell viability: 132%
[5]; [38]
  cell viability: 103%
[5]; [39]
  cell viability: 118%
[5]; [40]
  cell viability: 86.4%
[6]; [8]
  cell viability: 115%
[6]; [9]
  cell viability: 120%
[6]; [10]
  cell viability: 135%
[6]; [11]
  cell viability: 112%
[6]; [12]
  cell viability: 134%
[6]; [13]
  cell viability: 143%
[6]; [14]
  cell viability: 139%
[6]; [15]
  cell viability: 138%
[6]; [16]
  cell viability: 118%
[6]; [17]
  cell viability: 131%
[6]; [18]
  cell viability: 124%
[6]; [19]
  cell viability: 113%
[6]; [20]
  cell viability: 122%
[6]; [21]
  cell viability: 129%
[6]; [22]
  cell viability: 130%
[6]; [23]
  cell viability: 146%
[6]; [24]
  cell viability: 138%
[6]; [25]
  cell viability: 139%
[6]; [26]
  cell viability: 125%
[6]; [27]
  cell viability: 119%
[6]; [28]
  cell viability: 136%
[6]; [29]
  cell viability: 130%
[6]; [30]
  cell viability: 119%
[6]; [31]
  cell viability: 127%
[6]; [32]
  cell viability: 123%
[6]; [33]
  cell viability: 130%
[6]; [34]
  cell viability: 139%
[6]; [35]
  cell viability: 137%
[6]; [36]
  cell viability: 125%
[6]; [37]
  cell viability: 164%
[6]; [38]
  cell viability: 117%
[6]; [39]
  cell viability: 129%
[6]; [40]
  cell viability: 137%

— the supplement of paper PMC11451515
